Earlier results in EP1803441A1 (Teva Pharmaceutical Industries Ltd, priority 2005, dated 2007).

How the values were obtained:
[1] = orally administered tablets
[2] = oral administration

- increase of the extent of absorption when tablets are taken with food [1]: approximately 35%
- part of a single dose excreted in the feces [2]: 25%
Compound: CC(C)OC(=O)C(C)(C)Oc1ccc(C(=O)c2ccc(Cl)cc2)cc1 [fenofibrate, 2-[4-(4-chlorobenzoyl)phenoxy]-2-methyl-propanoic acid, 1-methylethyl ester]
